From patent US20240368668A1, “SUBSTRATES AND BIOMARKERS OF ADAMTS7” (The Broad Institute, Inc., priority 2021, published 2024)

Tested on: mouse ADAMTS7
Assay: TMT10 TAILS N-terminomics, HUVEC experiment (process replicates, trypsin/AspN digest)
Format: cell-based, human
Settings: for logFC.mWT.over.mEQ: HUVEC TAILS HC, log fold change of N-terminal peptide, Ad-mADAMTS7 WT over EQ; for HUVEC logFC.mWT.over.mEQ: HUVEC experiment, log fold change, mouse ADAMTS7 WT over EQ
Description: ADAMTS7 Expression, Cell Culture and Preparation of the Secreted Proteins—Full-length mouse Adamts7 1-1857 (Uniprot Q68SA9, WT or E373Q catalytic mutant) with a carboxyl terminal 3xFLAG tag was used to generate custom adenoviruses as previously described. Adeno-CMV-Luciferase (Ad-Luc) from Vector Biolabs was used as a negative control. Human Coronary Artery Smooth Muscle Cells (HCA-SMC) were obtained from Lonza and expanded in Lonza SmGM-2 media in 15 cm tissue culture plates. Twenty-four hours before media collection, near confluent plates were transduced with 50 MOI adenovirus and switched to Lonza Basal SM media with volumes of 20 ml per 15 cm plate. Expression of the Flag tagged ADAMTS7 was confirmed from the media using western blot and detected using the anti-Flag M2-HRP antibody (Sigma, A8592). Collected media was processed by adding protease inhibitors (1 mM EDTA and 1 mM PMSF) and clarified by 500 g×5 min spin at 4 C to pellet cell debris. Cell media supernatants were then passed through a 0.22 um filter and kept chilled. Processed media was then concentrated 50-100× using 3 kDa Centricon Plus-70 filter unit, spun at 3,500 g×60 min at 4 C. Approximately 10% of the processed, concentrated media was set aside for total secretome proteolytic analysis. The remaining 90% of the processed, concentrated media was buffer exchanged into 50 mM HEPES pH 8.0, 150 mM NaCl (2×50 ml) using the 3 kDa Centricon Plus-70 filter unit and concentrated to >2 mg/ml to serve as input for the TAILS experiment. Secretome and TAILS input samples were stored at −80° C.
For the first experiment, referred to as SMC1, 120 ml of media from 6×15 cm dishes was pooled from each condition (Luc, WT, EQ) and processed to produce three separate inputs for the TAILS experiment. Luc, WT and EQ inputs from the SMC1 experiment were each divided into triplicate 400 ug samples to generate technical replicate TAILS data. For the second experiment, referred to as SMC2, media was processed separately in triplicate for each condition (Luc1, Luc2, Luc3, WT1, WT2, WT3, EQ1, EQ2, EQ3) using 60 ml of media from 3×15 cm dishes for each process replicate. Inputs from the SMC2 experiment used process replicates of 300 ug each to generate TAILS data. The third experiment used input from cultured Human umbilical vein endothelial cells (HUVEC) from Lifeline Cell Technology grown in VascuLife Media and transduced in Lifeline Basal EC (+bFGF2 10 ng/ml). The HUVEC experiment used the same strategy as the SMC2 experiment, with 40 ml of media from 2×15 cm dishes for each process replicate and used 200 ug each to generate TAILS data. Inputs for process replicate experiments were restricted to the lowest concentration from the 9 parallel samples for SMC2 or HUVEC.
TMT10 isotopic labeling and negative selection of non-labeled peptides-Sample preparation was performed based on the TAILS protocol from the Overall lab with some modifications. From a single experiment, nine parallel protein samples in 50 mM HEPES pH 8.0, 150 mM NaCl were separately denatured with guanidinium chloride (Sigma, G4505) to reach a final concentration of 2.5M guanidinium chloride and 250 mM HEPES and incubated at 65° C. for 15 min. Reduction was achieved through addition of tris(2-carboxylethyl) phosphine (TCEP) at a final concentration of […] and incubated at 65° C. for 45 min. Alkylation reaction was performed with addition of iodoacetamide (IAA, Sigma, A3221) to a final concentration of 10 mM IAA for 15 min at room temperature in the dark. Following denaturation, reduction and alkylation steps, ten percent of each of the nine parallel protein samples was removed and combined to serve as a pooled reference. Isobaric tags were added to free amine groups using the TMT10plex Isobaric Mass Tagging Kit (ThermoFisher, 90113) with TMT channels randomly assigned to the nine samples and TMT 131 assigned to the pooled reference. […]

| Substance | logFC.mWT.over.mEQ | HUVEC logFC.mWT.over.mEQ |
| --- | --- | --- |
| AEBP1_37 (FLEGFLSELEPEPR; listed as Homo sapiens) | 4.34 | – |
| EFEMP1_124 (AVAGPEMQTGR; listed as Homo sapiens) | 3.31 | – |
| EFEMP1_125 (VAGPEMQTGR; listed as Homo sapiens) | – | 2.45 |
| FBN1_29 (LEAGNVKETR; listed as Homo sapiens) | 3.91 | – |
| FLNA_1285 (LTQTGGPHVKAR; listed as Homo sapiens) | 3.81 | – |
| FN1_36 (MVQPQSPVAVSQSKPGCYDNGKHYQINQQWER; listed as Homo sapiens) | 3.45 | – |
| FN1_40 (QSPVAVSQSKPGCYDNGKHYQINQQWER; listed as Homo sapiens) | 2.96 | – |
| FN1_886 (NQESTPVVIQQETTGTPR; listed as Homo sapiens) | 2.04 | 3.68 |
| FN1_1143 (LTPGVEYVYTIQVLR; listed as Homo sapiens) | 3.68 | – |
| FN1_1656 (SSSPVTGYR; listed as Homo sapiens) | 1.63 | – |
| HSPG2_275 (LLPGSVR; listed as Homo sapiens) | – | 0.77 |
| HSPG2_2331 (ANLAYPAGSTQPIR; listed as Homo sapiens) | 1.73 | – |
| IGFBP7_101 (AAGGPGVSGVCVCKSR; listed as Homo sapiens) | 1.89 | – |
| LOXL2_37 (FQQPAPEYHQPQAPANVAKIQLR; listed as Homo sapiens) | 3.48 | – |
| LOX_124 (WFQAGYSTSR; listed as Homo sapiens) | 3.35 | – |
| LTBP1_393 (LTATNFR; listed as Homo sapiens) | 3.33 | – |
